In patent publication US20260028390A1, “ALPHA1-ANTITRYPSIN FOR USE IN THE TREATMENT OF DISEASES OR DISORDERS OF THE NERVOUS SYSTEM SUCH AS CHRONIC INFLAMMATORY DEMYELINATING POLYNEUROPATHY” (Ageronix SA, priority 2022, published 2026):
Where “and” joins values, the source holds several entries; their conditions need not be identical. Equal values may be shown once.

Assays:
[1] = Body weight, CMT1A mouse study (AAT 50 mg/kg sc twice daily); type: in vivo
Excerpt: As a murine model of CMT1A we used C3-PMP22 transgenic mice (B6.Cg-Tg(PMP22)C3Fbas/J, The Jackson Laboratory) which express three copies of a wild-type human peripheral myelin protein 22 (PMP22) gene (Verhamme, Camiel, et al. Journal of Neuropathology & Experimental Neurology 70.5 (2011): 386-398). Mice were housed in macrolon cages with filter hoods, in a continuously air-filtered room, thereby avoiding contamination. During experiments, paired animals were caged at a constant temperature with a day/night cycle of 12/12 hours. Animals were fed (control tap water and nutrition) ad libitum. Animal protocol is approved by the Animal Studies Committee of Languedoc Roussillon. This protocol and the laboratory procedures comply with French legislation, which implements the European Directives (Reference Number: D3417223, APAFIS #23920-2020020320279696 v3). Animal health was followed on a daily basis to ensure that only animals in good health enter the testing procedures and follow up the study.
Animals were split in 3 groups (wild-type control (subcutaneous 0.9% NaCl), CMT1A-vehicle (subcutaneous 0.9% NaCl), CMT1A-human alpha-1 antitrypsin (subcutaneous, twice daily, 50 mg/kg per injection)) of 3 mice each (3 weeks old males of 18±2.5 g at the beginning of study) and all went through the following protocol after 7 days of acclimation on site.

CIDP mice = assay: Von Frey test (paw withdrawal threshold), CIDP mouse model; type: in vivo; conditions: for Von Frey, paw withdrawal threshold (Mean ± SD): CIDP mice; for von Frey test, Paw withdrawal threshold, group MEAN: group mean of 4 animals; for von Frey test, Paw withdrawal threshold, Mean/animal: per animal; for von Frey test, Paw withdrawal threshold, Mean/animal / von Frey test, Paw withdrawal threshold, set 1 / von Frey test, Paw withdrawal threshold, set 2 / von Frey test, Paw withdrawal threshold, set 3: listed as hAAT; for von Frey test, Paw withdrawal threshold, set 1 / von Frey test, Paw withdrawal threshold, set 2 / von Frey test, Paw withdrawal threshold, set 3: raw data per animal
Description: (§1) C57BL/6 mice were received at 8 weeks of age and housed under controlled conditions for the duration of the study. Three groups of 4 animals each were assigned to the following subcutaneous treatments twice daily at 7:00 AM and 7:00 PM for 2 weeks, from 20 to 35 days after the start of disease induction: • Wild type (WT) mice receiving the vehicle, 0.9% NaCl (positive control) • CIDP mice receiving the vehicle, 0.9% NaCl (negative control) • CIDP mice receiving human AAT (AAT), 50 mg/kg per injection
Disease induction consisted in subcutaneous injection of mouse sciatic nerve homogenate in phosphate buffer saline (PBS)+Freund's adjuvant mixture at 10 mL/kg. For each treatment, 3 different body sites injections were performed. Control mice also received three subcutaneous injections of PBS+Freund's adjuvant at the same 3 different body sites.
On the first (Day 20) and last (Day 35) day of treatment, the neuromuscular and performance of animals was tested with a rotarod test, grip test and a sensory test using the Von Frey filament test, as well as sciatic nerve electrophysiology test. After the last treatment at Day 35, these tests were repeated, animals were sacrificed and the left sciatic nerve was sampled for histological evaluation of the number and size of […].

plasma NfL = assay: Plasma NfL quantification, CIDP mouse model; type: in vivo; conditions: for Plasma NfL, Mean Diff., CIDP + vehicle vs. CIDP + hAAT / Plasma NfL, Mean Diff., Sham negative control vs. CIDP + hAAT: Bonferroni's multiple comparisons test; for Plasma NfL concentration (Mean ± SD): CIDP mice; for NfL conc: per animal, listed as hAAT
Description: as §1
On the day preceding disease induction (Day 1), on the first (Day 20) and on the last (Day 35) treatment day, animals were subjected to blood samplings for the determination of neurofilament light chain (NfL), tumour necrosing factor alpha (TNFα) and TMPRSS5 levels, as described in FIG. 20. In addition, plasma levels of AAT were evaluated on the last treatment day.

plasma TNFα = assay: Plasma TNFα, CMT mice treated with AAT 180 mg/kg/day sc; type: in vivo, mouse
Excerpt: Animals were received at 6 weeks of age and housed under controlled conditions for the duration of the study. The study comprised two groups of 8 transgenic mice (CMT mice) each and one group of 8 age matched wild type (WT) C57B16 mice, serving as positive control. Animals were assigned to the following subcutaneous treatments twice daily at 7:00 AM and 7:00 PM for 2 weeks, starting from 8 weeks and up to 10 weeks of age: • Wild-type (WT, no disease) mice receiving vehicle, 0.9% NaCl (positive control) • CMT1A mice receiving vehicle, 0.9% NaCl (negative control) • CMT1A mice receiving AAT at 90 mg/kg per injection (daily dose 180 mg/kg)
The efficacy parameters included: • neuromuscular performance (rotarod latency to fall and grip strength test), • sciatic nerve electrophysiology (CMAP amplitude and NCV) • cytokine (IL-6 and TNFα), as well as NfL analysis • sciatic nerve histology (number of axons and axonal diameter),
As supportive information for the mode of action of AAT in CMT, plasma concentration of interleukin 6 (IL-6) and TNFα were measured at Day 1 (8 weeks), Day 15 (10 weeks) and Day 30 (12 weeks). At the same timepoints, plasma levels of the biomarker of nerve damage, NfL were determined.

[2] = system: CMT1A mice B6.Cg-Tg(PMP22)C3Fbas/J; assay: Rotarod latency to fall, CMT mice treated with AAT 180 mg/kg/day sc; type: in vivo, mouse
[3] = baseline (6 weeks old), CMT + hAAT, individual animal

Substance: alpha1-antitrypsin (AAT) protein
- Body weight, MEAN ([1]; CMT1A + hAAT, 3rd column, head prints 6 weeks old, in g (unit assumed)): 19.73
- Body weight, individual mice ([1]; CMT1A + hAAT, 3rd column, head prints 6 weeks old, listed as hAAT, in g (unit assumed)): 19.6 and 20.5 and 19.1
- body weight loss in the AAT treated group compared to the vehicle group ([1]; CMT1A mice, 50 mg/kg sc twice daily, two weeks): no observable body weight loss
- threshold of paw withdrawal compared to the vehicle treated group (CIDP mice; CIDP + AAT 50 mg/kg sc twice daily, Day 35): increased
- Von Frey, paw withdrawal threshold (Mean ± SD) (CIDP mice; Day 20 (baseline)): 3.16 ± 0.95 grams
- Von Frey, paw withdrawal threshold (Mean ± SD) (CIDP mice; Day 35, AAT 50 mg/kg sc twice daily): 5.71 ± 0.41 grams
- von Frey test, Paw withdrawal threshold, group MEAN (CIDP mice; Baseline (Day 20)): 3.16 grams
- von Frey test, Paw withdrawal threshold, group MEAN (CIDP mice; Day 35): 5.80 grams
- von Frey test, Paw withdrawal threshold, Mean/animal (CIDP mice; Baseline (Day 20)): 4.30 grams and 2.10 grams and 2.74 grams and 3.48 grams
- von Frey test, Paw withdrawal threshold, Mean/animal (CIDP mice; Day 35): 5.60 grams and 5.24 grams and 6.21 grams and 6.14 grams
- von Frey test, Paw withdrawal threshold, set 1 (CIDP mice; Baseline (Day 20)): 4.6 grams and 2.1 grams and 3.3 grams and 4.5 grams
- von Frey test, Paw withdrawal threshold, set 2 (CIDP mice; Baseline (Day 20)): 2.4 grams and 1.8 grams and 2.1 grams and 2.2 grams
- von Frey test, Paw withdrawal threshold, set 3 (CIDP mice; Baseline (Day 20)): 6.0 grams and 2.4 grams and 2.8 grams and 3.8 grams
- von Frey test, Paw withdrawal threshold, set 1 (CIDP mice; Day 35): 5.3 grams and 5.9 grams and 7.7 grams and 5.1 grams
- von Frey test, Paw withdrawal threshold, set 2 (CIDP mice; Day 35): 5.1 grams and 3.7 grams and 5.3 grams and 7.0 grams
- von Frey test, Paw withdrawal threshold, set 3 (CIDP mice; Day 35): 6.4 grams and 6.1 grams and 5.7 grams and 6.3 grams
- Plasma NfL, Mean Diff., CIDP + vehicle vs. CIDP + hAAT (plasma NfL; Day 1): 0.04828
- Plasma NfL, Mean Diff., Sham negative control vs. CIDP + hAAT (plasma NfL; Day 1): 0.01878
- Plasma NfL, Mean Diff., CIDP + vehicle vs. CIDP + hAAT (plasma NfL; Day 20): 0.2088
- Plasma NfL, Mean Diff., Sham negative control vs. CIDP + hAAT (plasma NfL; Day 20): -2.85 ng/mL
- Plasma NfL, Mean Diff., CIDP + vehicle vs. CIDP + hAAT (plasma NfL; Day 35): 1.01 ng/mL
- Plasma NfL, Mean Diff., Sham negative control vs. CIDP + hAAT (plasma NfL; Day 35): -1.88 ng/mL
- plasma NfL concentration compared to the CIDP+vehicle treated group (plasma NfL; CIDP + AAT, day 35): significant decrease
- Plasma NfL concentration (Mean ± SD) (plasma NfL; Day 1): 0.29 ± 0.11 ng/mL
- Plasma NfL concentration (Mean ± SD) (plasma NfL; Day 20): 3.12 ± 0.86 ng/mL
- Plasma NfL concentration (Mean ± SD) (plasma NfL; Day 35): 2.30 ± 0.27 ng/mL
- NfL conc, group MEAN (plasma NfL; Day 1): 0.29 ng/mL
- NfL conc, group MEAN (plasma NfL; Day 20): 3.12 ng/mL
- NfL conc, group MEAN (plasma NfL; Day 35): 2.30 ng/mL
- NfL conc (plasma NfL; Day 1 (before model induction)): 0.3654 ng/mL and 0.2865 ng/mL and 0.3798 ng/mL and 0.1412 ng/mL
- NfL conc (plasma NfL; Day 20 (before compound treatment)): 3.7596 ng/mL and 2.7654 ng/mL and 3.8846 ng/mL and 2.0831 ng/mL
- NfL conc (plasma NfL; Day 35): 2.4447 ng/mL and 1.9017 ng/mL and 2.3497 ng/mL and 2.5056 ng/mL
- Plasma TNFα (Mean ± SD) (plasma TNFα; 8 weeks old (baseline, Day 1), CMT1A + AAT): 9.80 ± 2.25 pg/mL
- Plasma TNF-α concentration, group Mean (plasma TNFα; 8 weeks old, CMT + hAAT 180 mg/kg/day SC, 8 animals): 6.94 pg/mL
- Plasma TNF-α concentration (plasma TNFα; 8 weeks old, CMT + hAAT 180 mg/kg/day SC, individual animal): 7.04 pg/mL and 7.89 pg/mL and 7.91 pg/mL and 5.44 pg/mL and 7.90 pg/mL and 5.34 pg/mL and 8.02 pg/mL and 5.95 pg/mL
- Plasma TNFα (Mean ± SD) (plasma TNFα; 10 weeks old (Day 15, after 2 weeks AAT 90 mg/kg sc twice daily)): 6.55 ± 2.11 pg/mL
- positive effect on TNFα plasma levels (plasma TNFα; 12 weeks of age, after 2-week treatment-free period): remained significant
- Plasma TNFα (Mean ± SD) (plasma TNFα; 12 weeks old (Day 30, after 2-week treatment-free period)): 11.61 ± 1.00 pg/mL
- plasma levels of TNFα (plasma TNFα; CMT mice, AAT 90 mg/kg sc twice a day, P<0.0001): reduced
- rotarod latency to fall vs CMT mice not treated with AAT ([2]; CMT mice, AAT 90 mg/kg sc twice a day, 8 to 10 weeks of age, end of treatment): significant increase
- Rotarod latency, group Mean ([2]; baseline (6 weeks old), CMT + hAAT, 8 animals): 71.46 s
- Rotarod latency, Mean/animal [2, 3]: 53.43 s and 52.98 s and 66.74 s and 56.96 s and 66.75 s and 65.56 s and 106.66 s and 102.61 s
- Rotarod latency, set 1 [2, 3]: 53.47 s and 57.35 s and 69.94 s and 62.11 s and 65.03 s and 66.86 s and 110.28 s and 93.16 s
- Rotarod latency, set 2 [2, 3]: 57.11 s and 51.61 s and 67.40 s and 54.79 s and 72.92 s and 68.48 s and 109.55 s and 105.36 s
- Rotarod latency, set 3 [2, 3]: 49.72 s and 49.96 s and 62.87 s and 53.98 s and 62.30 s and 61.35 s and 100.14 s and 109.32 s
